Experiment [1] deals with T1, DNA dC->dU-editing enzyme APOBEC-3A (Homo sapiens, UniProt P31941). As to the kind of experiment: SAR analysis of small molecule inhibitors of APOBEC3A DNA Deaminase via a fluorescence-based single-stranded DNA deaminase assay - Set 2. As to conditions: read-out: IC50_Mean. The class given is functional.
Experiment [2] addresses T2, DNA dC->dU-editing enzyme APOBEC-3G (Homo sapiens, UniProt Q9HC16). The experiment can be described thus: SAR analysis of small molecule inhibitors of APOBEC3G DNA Deaminase via a fluorescence-based single-stranded DNA deaminase assay - Set 2. The class given is functional. As to conditions: read-out: IC50_Mean.
A further experiment relates to INS1. The experiment can be described thus: INS-1E survival protection against cytokine death – cell-based, luminescence, retest, dose response (AID 449756).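 Note: cell death triggered by IL-1 beta plus TNF-alpha plus IFN-gamma mixture; protective hits raise ATP signal compared with cytokine alone wells.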 In kind it is functional. The conditions noted are these: Rattus norvegicus.
Experiment [3] can be described thus: luciferase reporter signal suppression in cells – H4 neuroglioma cells, luminescence, dose response (AID 1990). In kind it is functional, cell-based. A general note: A reporter such as luciferase makes a cellular process visible.
Experiment [4] can be described thus: Trypanosoma cruzi growth suppression in host cells – NIH3T3 host cells, beta-gal luminescence, confirmation (AID 2044).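 Note: intracellular parasites grown in NIH/3T3 mouse fibroblasts as host cells; luminescent beta-galactosidase reporter signal from transgenic T. cruzi replicating inside host cells; inhibitors lower the luminescence signal.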 In kind it is functional, cell-based.
The nature of experiment [5]: NIH3T3 cell viability loss – ATP luminescence, mouse fibroblasts, counter-screen, dose response (AID 2010).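 Note: cells exposed to compound for about 90 hours before reading.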 In kind it is functional, cell-based. On the technique in general: A counterscreen serves to expose hits that act by an unwanted route or on another target.
The target in experiment [6] is FAD-linked sulfhydryl oxidase ALR (Homo sapiens, UniProt P55789). As to the kind of experiment: ALR-catalysed DTT oxidation blockers – biochemical, H2O2 detection, luminescence, cherry-pick, dose response (AID 493248).
Experiment [7] deals with Beta-lactamase (Salmonella choleraesuis (strain SC-B67), UniProt Q5J463).
Experiment [8] is described as follows: alpha-synuclein stem-loop luciferase translation blockers – H4 neuroglioma cells, luminescence, confirmation (AID 1988). In kind it is functional, cell-based.
The target of experiment [9] is T1, DNA dC->dU-editing enzyme APOBEC-3A. As to the kind of experiment: SAR analysis of small molecule inhibitors of APOBEC3A DNA Deaminase via a fluorescence-based single-stranded DNA deaminase assay. In kind it is functional. As to conditions: read-out: IC50_Mean.
In experiment [10] the target is T2, DNA dC->dU-editing enzyme APOBEC-3G. In kind it is functional.
The target of experiment [11] is T1, DNA dC->dU-editing enzyme APOBEC-3A. The experiment can be described thus: Dose Response confirmation of small molecule APOBEC3A DNA Deaminase Inhibitors via a fluorescence-based single-stranded DNA deaminase assay. [Related pubchem assays (depositor defined):AID493011, AID493024]. In kind it is functional.
A short description of experiment [12]: Luminescence Cell-Based Dose Response HTS to Identify Inhibitors of 5'UTR Stem-Loop Driven Prion Protein mRNA Translation in H4 Neuroglioblastoma Cells. [Related pubchem assays: 1827 (Project Summary), 1813 (Primary HTS)]. In kind it is functional.
For experiment [13], the target named is Beta-lactamase (Pseudomonas aeruginosa, UniProt Q79MP6).
Experiment [14] deals with T2, DNA dC->dU-editing enzyme APOBEC-3G. The experiment can be described thus: inhibition of APOBEC3G ssDNA deamination – biochemical, fluorescence, single-stranded DNA substrate, SAR follow-up (AID 602136). The class given is functional. The conditions noted are these: read-out: IC50_Mean.
The next experiment has as its target Activated CDC42 kinase 1 (Homo sapiens, UniProt Q07912). As to the kind of experiment: Navigating the Kinome. Panel member name: ACK1. The class given is functional.
Experiment [15] deals with Death-associated protein kinase 3 (Homo sapiens, UniProt O43293). The class given is functional.
Death-associated protein kinase 3, sequence (O43293 whole entry): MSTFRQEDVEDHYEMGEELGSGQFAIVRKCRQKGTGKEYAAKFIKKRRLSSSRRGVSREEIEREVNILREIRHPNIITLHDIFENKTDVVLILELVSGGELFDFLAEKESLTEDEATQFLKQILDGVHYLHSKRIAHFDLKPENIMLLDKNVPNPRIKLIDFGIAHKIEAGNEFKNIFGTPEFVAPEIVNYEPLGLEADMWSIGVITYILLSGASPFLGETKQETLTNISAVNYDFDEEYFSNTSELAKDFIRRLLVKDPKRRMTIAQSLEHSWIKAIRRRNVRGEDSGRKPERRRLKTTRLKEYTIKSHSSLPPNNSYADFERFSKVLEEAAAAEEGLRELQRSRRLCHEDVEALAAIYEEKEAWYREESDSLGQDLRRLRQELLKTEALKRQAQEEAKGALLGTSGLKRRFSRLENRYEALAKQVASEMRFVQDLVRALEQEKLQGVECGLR
Experiment [16] deals with Mast/stem cell growth factor receptor Kit (Homo sapiens, UniProt P10721). In kind it is functional.
Mast/stem cell growth factor receptor Kit, sequence (P10721 whole entry): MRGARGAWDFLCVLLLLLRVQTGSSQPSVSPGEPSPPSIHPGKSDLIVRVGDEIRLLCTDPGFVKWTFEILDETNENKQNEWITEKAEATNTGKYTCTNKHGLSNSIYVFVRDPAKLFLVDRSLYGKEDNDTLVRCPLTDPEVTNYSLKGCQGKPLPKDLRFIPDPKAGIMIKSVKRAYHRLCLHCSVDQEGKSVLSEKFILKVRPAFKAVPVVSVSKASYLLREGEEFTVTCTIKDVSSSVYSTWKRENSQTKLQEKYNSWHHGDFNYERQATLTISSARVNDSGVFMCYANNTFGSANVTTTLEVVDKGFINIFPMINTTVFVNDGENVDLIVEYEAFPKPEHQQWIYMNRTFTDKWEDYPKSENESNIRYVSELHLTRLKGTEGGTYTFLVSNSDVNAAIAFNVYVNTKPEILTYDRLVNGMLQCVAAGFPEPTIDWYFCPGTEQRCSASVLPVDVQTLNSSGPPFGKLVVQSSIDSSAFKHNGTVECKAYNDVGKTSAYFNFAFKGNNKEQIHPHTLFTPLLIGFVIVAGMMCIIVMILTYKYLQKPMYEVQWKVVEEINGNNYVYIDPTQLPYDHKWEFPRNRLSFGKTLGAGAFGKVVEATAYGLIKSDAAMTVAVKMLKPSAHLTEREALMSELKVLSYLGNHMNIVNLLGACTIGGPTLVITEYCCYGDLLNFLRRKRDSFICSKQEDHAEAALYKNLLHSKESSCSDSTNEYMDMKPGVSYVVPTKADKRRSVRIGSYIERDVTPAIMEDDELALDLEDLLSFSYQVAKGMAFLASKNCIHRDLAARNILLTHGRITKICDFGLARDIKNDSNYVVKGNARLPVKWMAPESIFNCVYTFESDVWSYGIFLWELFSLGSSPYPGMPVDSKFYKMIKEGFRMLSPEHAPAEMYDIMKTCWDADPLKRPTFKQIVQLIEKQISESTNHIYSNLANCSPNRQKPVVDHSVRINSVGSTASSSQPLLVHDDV
In experiment [17] the target is Serine/threonine-protein kinase pim-1 (Homo sapiens, UniProt P11309). The class given is functional.
Serine/threonine-protein kinase pim-1, sequence (P11309 whole entry): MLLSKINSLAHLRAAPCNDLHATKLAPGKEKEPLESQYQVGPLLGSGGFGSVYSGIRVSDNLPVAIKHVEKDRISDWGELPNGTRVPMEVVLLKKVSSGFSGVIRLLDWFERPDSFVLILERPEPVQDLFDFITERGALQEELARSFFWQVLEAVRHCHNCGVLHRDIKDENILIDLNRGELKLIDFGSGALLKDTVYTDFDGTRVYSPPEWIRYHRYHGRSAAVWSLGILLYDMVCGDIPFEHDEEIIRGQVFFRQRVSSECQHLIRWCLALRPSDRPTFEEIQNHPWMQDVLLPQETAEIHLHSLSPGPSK
Experiment [18] deals with Fibroblast growth factor receptor 1 (Homo sapiens, UniProt P11362). The class given is functional.
Experiment [19] addresses Tyrosine-protein kinase Fyn (Homo sapiens, UniProt P06241). In kind it is functional.
A further experiment deals with Focal adhesion kinase 1 (Homo sapiens, UniProt Q05397). The class given is functional.
Focal adhesion kinase 1, sequence (Q05397 whole entry): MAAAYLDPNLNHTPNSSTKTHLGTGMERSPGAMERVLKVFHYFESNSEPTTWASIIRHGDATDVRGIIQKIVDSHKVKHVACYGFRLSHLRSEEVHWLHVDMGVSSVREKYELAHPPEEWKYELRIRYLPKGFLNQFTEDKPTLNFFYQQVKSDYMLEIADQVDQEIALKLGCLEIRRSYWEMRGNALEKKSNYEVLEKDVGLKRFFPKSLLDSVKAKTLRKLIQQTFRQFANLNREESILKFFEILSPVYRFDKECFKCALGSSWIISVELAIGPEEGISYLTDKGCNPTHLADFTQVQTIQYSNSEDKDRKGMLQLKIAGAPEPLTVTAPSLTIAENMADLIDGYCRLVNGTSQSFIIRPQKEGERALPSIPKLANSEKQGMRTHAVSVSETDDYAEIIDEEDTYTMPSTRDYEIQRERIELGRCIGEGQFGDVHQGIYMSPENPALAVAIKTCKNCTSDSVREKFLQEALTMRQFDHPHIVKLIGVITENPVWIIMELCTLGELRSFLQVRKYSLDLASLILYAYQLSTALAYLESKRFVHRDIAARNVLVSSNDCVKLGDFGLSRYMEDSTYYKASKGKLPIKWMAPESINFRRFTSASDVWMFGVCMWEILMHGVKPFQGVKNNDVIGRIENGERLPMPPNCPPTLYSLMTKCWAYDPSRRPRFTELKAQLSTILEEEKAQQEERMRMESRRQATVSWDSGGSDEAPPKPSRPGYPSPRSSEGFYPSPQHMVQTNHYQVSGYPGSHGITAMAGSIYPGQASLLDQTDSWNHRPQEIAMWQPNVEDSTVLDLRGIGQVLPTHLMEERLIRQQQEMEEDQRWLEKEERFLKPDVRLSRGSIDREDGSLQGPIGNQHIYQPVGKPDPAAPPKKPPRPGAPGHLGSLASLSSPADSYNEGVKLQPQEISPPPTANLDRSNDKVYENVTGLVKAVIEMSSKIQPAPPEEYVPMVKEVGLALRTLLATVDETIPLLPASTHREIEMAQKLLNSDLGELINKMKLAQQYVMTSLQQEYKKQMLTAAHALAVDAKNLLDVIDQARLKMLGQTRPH
Experiment [20] has as its target Tyrosine-protein kinase BTK (Homo sapiens, UniProt Q06187). In kind it is functional.
Experiment [21] addresses T3, Glycogen synthase kinase-3 beta (Homo sapiens, UniProt P49841). In kind it is functional.
Experiment [22] concerns the target Mitogen-activated protein kinase 9 (Homo sapiens, UniProt P45984). The class given is functional.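 Note: value from a kinome panel profiling assay, MAPK9 panel entry.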
In experiment [23] the target is Casein kinase I isoform alpha (Homo sapiens, UniProt P48729). The class given is functional.
For experiment [24], the target named is Macrophage-stimulating protein receptor (Homo sapiens, UniProt Q04912). As to the kind of experiment: Navigating the Kinome. Panel member name: MST1R. In kind it is functional.
Experiment [25] has as its target Vascular endothelial growth factor receptor 1 (Homo sapiens, UniProt P17948). The class given is functional.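 Note: measured within a kinome-wide profiling panel, FLT1 as the panel member.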
Experiment [26] has as its target Calcium/calmodulin-dependent protein kinase type II subunit alpha (Homo sapiens, UniProt Q9UQM7). The experiment can be described thus: Navigating the Kinome. Panel member name: CAMK2A. The class given is functional.
The target in experiment [27] is Serine/threonine-protein kinase N2 (Homo sapiens, UniProt Q16513). In kind it is functional.
Experiment [28] deals with Tyrosine-protein kinase JAK3 (Homo sapiens, UniProt P52333). In kind it is functional.
The target of experiment [29] is Inhibitor of nuclear factor kappa-B kinase subunit epsilon (Homo sapiens, UniProt Q14164). The experiment can be described thus: Navigating the Kinome. Panel member name: IKBKE. In kind it is functional.
The target in experiment [30] is Mitogen-activated protein kinase 14 (Homo sapiens, UniProt Q16539). In kind it is functional.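 Note: part of a kinome-wide panel, MAPK14 entry.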
Mitogen-activated protein kinase 14, sequence (Q16539 whole entry): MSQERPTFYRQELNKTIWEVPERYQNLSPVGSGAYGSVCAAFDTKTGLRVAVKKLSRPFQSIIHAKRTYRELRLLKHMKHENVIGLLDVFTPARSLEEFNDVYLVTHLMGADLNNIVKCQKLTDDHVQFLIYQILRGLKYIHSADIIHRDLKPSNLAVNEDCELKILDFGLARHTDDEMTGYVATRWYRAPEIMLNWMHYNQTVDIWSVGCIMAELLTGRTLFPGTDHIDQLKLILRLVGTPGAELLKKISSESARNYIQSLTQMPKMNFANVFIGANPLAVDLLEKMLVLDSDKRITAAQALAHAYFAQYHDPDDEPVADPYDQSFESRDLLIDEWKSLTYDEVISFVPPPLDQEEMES
The target in experiment [31] is BDNF/NT-3 growth factors receptor (Homo sapiens, UniProt Q16620). The class given is functional.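 Note: NTRK2 measured as one member of a broad kinome-wide kinase profiling panel.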
Experiment [32] has as its target Tyrosine-protein kinase ABL1 (Homo sapiens, UniProt P00519). The class given is functional.
The target in experiment [33] is Serine/threonine-protein kinase TAO1 (Homo sapiens, UniProt Q7L7X3). The class given is functional.
For experiment [34], the target named is Tyrosine-protein kinase Lck (Homo sapiens, UniProt P06239). The class given is functional.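 Note: lck was assayed as one member of a kinase panel.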
Experiment [35] concerns the target T4, Glycogen synthase kinase-3 alpha (Homo sapiens, UniProt P49840). In kind it is functional.
Experiment [36] concerns the target G protein-coupled receptor kinase 5 (Homo sapiens, UniProt P34947). As to the kind of experiment: Navigating the Kinome. Panel member name: GPRK5. In kind it is functional.
In experiment [37] the target is Cyclin-dependent kinase 8 (Homo sapiens, UniProt P49336). The experiment can be described thus: Navigating the Kinome. Panel member name: CDK8. The class given is functional.
The target in experiment [38] is ALK tyrosine kinase receptor (Homo sapiens, UniProt Q9UM73). In kind it is functional.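 Note: ALK tested as one member of a kinase panel screen.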
Experiment [39] addresses Mitogen-activated protein kinase kinase kinase kinase 5 (Homo sapiens, UniProt Q9Y4K4). In kind it is functional.
In experiment [40] the target is Mitogen-activated protein kinase 8 (Homo sapiens, UniProt P45983). In kind it is functional.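 Note: value comes from one member of a kinome-wide kinase profiling panel.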
Experiment [41] deals with Ribosomal protein S6 kinase alpha-3 (Homo sapiens, UniProt P51812). The class given is functional.
Experiment [42] has as its target Dual specificity protein kinase CLK2 (Homo sapiens, UniProt P49760). The class given is functional.
Experiment [43] concerns the target Mitogen-activated protein kinase kinase kinase kinase 4 (Homo sapiens, UniProt O95819). The class given is functional.
Experiment [44] deals with Serine/threonine-protein kinase D3 (Homo sapiens, UniProt O94806). In kind it is functional.
In experiment [45] the target is T5, Neuropeptides B/W receptor type 1 (Homo sapiens, UniProt P48145).
T5 sequence (P48145 whole entry): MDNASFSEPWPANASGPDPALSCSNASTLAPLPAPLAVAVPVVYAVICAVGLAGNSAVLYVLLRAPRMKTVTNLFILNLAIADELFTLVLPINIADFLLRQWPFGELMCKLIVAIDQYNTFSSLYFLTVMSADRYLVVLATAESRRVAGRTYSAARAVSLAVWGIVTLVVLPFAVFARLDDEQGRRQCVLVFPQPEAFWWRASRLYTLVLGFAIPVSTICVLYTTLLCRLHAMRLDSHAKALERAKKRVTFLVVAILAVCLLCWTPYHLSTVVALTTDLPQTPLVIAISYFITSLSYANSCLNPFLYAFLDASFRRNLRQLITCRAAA
As to the kind of experiment: human NPBW1 receptor blockade, IC50 – cell-based, fluorescence, dose response, set 5, late-stage follow-up (AID 588566). In kind it is functional.

Experiment [46] concerns the target Melanin-concentrating hormone receptor 1 (Homo sapiens, UniProt Q99705). As to the kind of experiment: Late-stage fluorescence-based counterscreen for antagonists of the G-protein coupled receptor 7 (GPR7): cell-based dose response assay to identify antagonists of the melanin-concentrating hormone receptor 1 (MCHR1) Set 5. In kind it is functional.
Experiment [47] has as its target T3, Glycogen synthase kinase-3 beta. The experiment can be described thus: inhibition of human GSK3B activity – biochemical, microfluidics, dry powder samples, set 2, dose response (AID 623989). In kind it is functional.
In the next experiment the target is Cytochrome P450 2C19 (Homo sapiens, UniProt P33261). The experiment can be described thus: Cytochrome panel assay with activity outcomes. Panel member name: p450-cyp2c19 Compounds with AC50 equal or less than 10 uM are considered active. The class given is functional. As to conditions: read-out: AC50.
In a further experiment the target is Cytochrome P450 2C9 (Homo sapiens, UniProt P11712).
For experiment [48], the target named is T4, Glycogen synthase kinase-3 alpha. As to the kind of experiment: GSK3A enzyme blockers, homolog specificity check – biochemical, microfluidics, dry powder samples, set 2, selectivity assay for GSK3beta inhibitor project, dose response (AID 623978). The class given is functional.

Structures are written as SMILES. Where “and” joins values, the source holds several entries; their conditions need not be identical. Equal values may be shown once. Calls of active or inactive are those of the source.

T2 sequence (Q9HC16 whole entry): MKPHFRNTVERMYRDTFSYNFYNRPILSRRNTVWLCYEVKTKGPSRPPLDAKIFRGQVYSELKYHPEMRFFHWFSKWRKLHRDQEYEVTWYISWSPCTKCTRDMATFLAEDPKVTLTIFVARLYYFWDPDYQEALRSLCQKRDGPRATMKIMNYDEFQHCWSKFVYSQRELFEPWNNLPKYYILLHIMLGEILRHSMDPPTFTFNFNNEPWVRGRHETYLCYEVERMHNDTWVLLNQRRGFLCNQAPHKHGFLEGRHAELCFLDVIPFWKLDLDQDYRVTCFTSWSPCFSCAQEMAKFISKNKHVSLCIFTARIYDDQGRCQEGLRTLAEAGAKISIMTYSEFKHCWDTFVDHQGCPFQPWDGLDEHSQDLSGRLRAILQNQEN
T1 sequence (P31941 whole entry): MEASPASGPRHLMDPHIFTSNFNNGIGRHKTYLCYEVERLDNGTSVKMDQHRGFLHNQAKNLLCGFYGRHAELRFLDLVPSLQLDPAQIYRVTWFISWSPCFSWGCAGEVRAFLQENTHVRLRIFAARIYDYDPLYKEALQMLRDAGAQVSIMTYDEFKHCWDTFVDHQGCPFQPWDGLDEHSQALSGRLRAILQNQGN
T3 sequence (P49841 whole entry): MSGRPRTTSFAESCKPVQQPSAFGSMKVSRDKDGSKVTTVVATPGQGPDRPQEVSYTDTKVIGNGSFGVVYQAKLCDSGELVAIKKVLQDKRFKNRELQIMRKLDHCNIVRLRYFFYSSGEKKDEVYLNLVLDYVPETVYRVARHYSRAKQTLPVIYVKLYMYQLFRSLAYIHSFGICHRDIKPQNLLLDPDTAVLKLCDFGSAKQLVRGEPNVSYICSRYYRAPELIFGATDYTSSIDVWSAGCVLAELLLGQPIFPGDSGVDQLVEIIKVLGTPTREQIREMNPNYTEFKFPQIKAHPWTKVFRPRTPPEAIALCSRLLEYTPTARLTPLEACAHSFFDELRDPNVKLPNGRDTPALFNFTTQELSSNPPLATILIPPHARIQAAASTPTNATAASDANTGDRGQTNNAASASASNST
T4 sequence (P49840 whole entry): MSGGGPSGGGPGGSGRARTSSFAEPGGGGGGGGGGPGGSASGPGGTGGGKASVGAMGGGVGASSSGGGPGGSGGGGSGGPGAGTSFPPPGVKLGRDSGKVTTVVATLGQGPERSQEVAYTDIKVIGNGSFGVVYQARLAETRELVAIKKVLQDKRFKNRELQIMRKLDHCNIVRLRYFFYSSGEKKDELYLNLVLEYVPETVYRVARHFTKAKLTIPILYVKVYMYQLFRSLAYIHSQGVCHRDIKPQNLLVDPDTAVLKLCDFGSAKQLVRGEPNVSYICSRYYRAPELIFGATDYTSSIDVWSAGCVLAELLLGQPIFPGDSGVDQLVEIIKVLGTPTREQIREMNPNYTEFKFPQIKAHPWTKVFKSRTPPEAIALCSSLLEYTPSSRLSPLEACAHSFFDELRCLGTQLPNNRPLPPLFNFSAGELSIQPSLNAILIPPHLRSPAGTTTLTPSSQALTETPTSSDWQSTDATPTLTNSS
Melanin-concentrating hormone receptor 1, sequence (Q99705 whole entry): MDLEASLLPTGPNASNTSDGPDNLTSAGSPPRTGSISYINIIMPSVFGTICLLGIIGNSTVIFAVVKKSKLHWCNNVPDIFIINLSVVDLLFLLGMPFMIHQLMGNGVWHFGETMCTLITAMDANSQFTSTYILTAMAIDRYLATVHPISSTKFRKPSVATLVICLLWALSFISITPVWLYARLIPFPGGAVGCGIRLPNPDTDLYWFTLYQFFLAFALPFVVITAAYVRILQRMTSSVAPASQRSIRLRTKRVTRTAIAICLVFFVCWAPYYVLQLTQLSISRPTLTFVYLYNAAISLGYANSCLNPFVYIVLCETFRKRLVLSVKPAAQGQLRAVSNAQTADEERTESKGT

Regarding `Cc1ccc2[nH]cc(/C=C/c3cc[n+](C)cc3)c2c1`, the IC50 in [1] was > 99 µM (inactive); in experiment [2] it was > 99 µM (inactive); at Beta-lactamase [7], 49.2 µM (inactive); in experiment [9] it was > 99 µM (inactive); in experiment [10], > 100 µM (inactive); in [11] it was 3.49 µM (active). Moreover, the IC50 at Beta-lactamase [13] is > 59.6 µM (inactive); in [14], > 99 µM (inactive). Besides, the AC50 in the experiment on INS1 was 4.88 µM (active); in [6], 1.49 µM (active). For the same molecule, the EC50 was 9.85 µM (active) in experiment [3]; 1.43 µM (active) in experiment [4]; > 60 µM (not active) in experiment [5]; 12.2 µM (active) in experiment [8]; 13.6 µM (active) in [12].

For `CC(C)C(CO)NC(=O)c1cccc(-n2nc(C(C)(C)C)cc2NC(=O)Nc2cccc3ccccc23)c1` (stereo not drawn), the Ki was > 3.98 µM (inactive) at Activated CDC42 kinase 1; > 5.01 µM (inactive) in experiment [15]; > 3.98 µM (inactive) in experiment [16]; > 6.31 µM (inactive) in experiment [17]; > 3.98 µM (inactive) in experiment [18]; > 6.31 µM (inactive) in [19]. Besides, the Ki on Focal adhesion kinase 1 was > 6.31 µM (inactive) and > 5.01 µM (inactive); in experiment [20], > 6.31 µM (inactive); in [21], > 3.98 µM (inactive); in experiment [22] it was 0.316 µM (active); in experiment [23] it was > 3.98 µM (inactive); in experiment [24], > 3.98 µM (inactive). In addition, the Ki in experiment [25] was > 3.98 µM (inactive); in experiment [26], > 7.94 µM (inactive); in experiment [27] it was 0.398 µM (active); in experiment [28], > 5.01 µM (inactive); in experiment [29] it was > 3.16 µM (inactive); in experiment [30], 398 nM (active) and 501 nM (active). The Ki is > 3.98 µM (inactive) in experiment [31]; > 3.98 µM (inactive) in experiment [32]; > 6.31 µM (inactive) in experiment [33]; > 6.31 µM (inactive) in experiment [34]; > 3.98 µM (inactive) in experiment [35]; > 3.98 µM (inactive) in [36]. The Ki was 2.51 µM (active) in experiment [37]; > 6.31 µM (inactive) in experiment [38]; > 3.98 µM (inactive) in [39]; > 5.01 µM (inactive) in [40]; > 3.98 µM (inactive) in experiment [41]; > 3.98 µM (inactive) in [42]. Besides, the results for the Ki in [43] and in experiment [44] were > 5.01 µM (inactive) and > 3.98 µM (inactive), respectively.

As for `CCOc1c(F)cc(Oc2c(Cl)cnn(Cc3cccc4ccccc34)c2=O)cc1F`, the IC50 in experiment [45] was 2.37 µM (active); in experiment [46], 9.19 µM (active).

On to `COC(=O)C(C)Sc1ccc2nnc(-c3ccc(F)cc3)n2n1` (stereo not drawn), for which the AC50 in experiment [47] was 1.24 µM (active); at Cytochrome P450 2C19, 39.8 µM (inconclusive); on Cytochrome P450 2C9 it was 3.55 µM (inconclusive); in experiment [48], 5.24 µM (active).

The AC50 is the midpoint of the concentration-response curve, whichever way the signal moves. For orientation: EC50 means the concentration giving half of the maximal effect. The term Ki denotes the equilibrium dissociation constant of an inhibitor or competing ligand from its target.

The values above are taken from ChEMBL document CHEMBL1201862, “PubChem BioAssay data set” (2004).
